The subject of one test is HeLa. Description: In vitro antiproliferative activity against human uterine carcinoma HeLa S3 cells. The test is classed as functional, cell-based.
Test [1] concerns P388. Description: Compound was tested in vivo for antitumor activity against lymphocytic leukemia P388 in mice. It counts as functional, Mus musculus.
Test [2] deals with P388. Put plainly: In vivo antitumor activity of compound was tested as maximal increase in life span (ILSmax) against lymphocytic leukemia P388 in mice. The test is classed as functional, Mus musculus.

Molecules are shown by their SMILES. Bounds are passed on as bounds.

In the test on HeLa (Homo sapiens, HeLa), `CCOC(=O)O[C@@H]1/C=C(\C)CC[C@]2(CC(=O)N[C@H](C)c3nc(cs3)/C=C\C=C\C1=O)[S+]([O-])SC(=O)[C@]2(C)O` (stereo partly drawn) yielded an IC50 of 1.4 nM. Besides, the Optimal dose in the test with P388 [1] amounted to 2 mg/kg. The molecule further registered an ILSmax in the test with P388 [2] of 31%.
In the test with HeLa (hela), `CO\N=C1/C=C/C=C\c2csc(n2)[C@@H](C)NC(=O)C[C@@]2(CC/C(C)=C/[C@H]1O)[S+]([O-])SC(=O)[C@]2(C)O` (stereo in doubt; 9b-1) registered a 50% inhibitory concentration (IC50) of 67 nM.
In the test on HeLa (Homo sapiens, HeLa), `C/C1=C\[C@@H](OC(=O)c2ccccc2)C(=O)/C=C/C=C\c2csc(n2)[C@@H](C)NC(=O)C[C@@]2(CC1)[S+]([O-])SC(=O)[C@]2(C)O` (stereo partly drawn) returned an IC50 of 130 nM. The same molecule displayed an Optimal dose in the test with P388 [1] of 2 mg/kg. For the same molecule, the ILSmax with P388 [2] was found to be 36%.
`C/C1=C\[C@@H](OC(=O)N2CCCCC2)C(=O)/C=C/C=C\c2csc(n2)[C@@H](C)NC(=O)C[C@@]2(CC1)[S+]([O-])SC(=O)[C@]2(C)O` (stereo partly drawn) yielded an IC50 in the test on HeLa (Homo sapiens, HeLa) of 180 nM.
In the test with HeLa (Homo sapiens, HeLa), `C/C1=C\[C@@H](O)C(=O)/C=C/C=C\c2csc(n2)[C@@H](C)NC(=O)C[C@@]2(CC1)[S+]([O-])SC(=O)[C@]2(C)O` (stereo partly drawn) [LEINAMYCIN] displayed an IC50 of 11 nM. In the test on P388 [1], the Optimal dose was determined as 0.38 mg/kg. The ILSmax in the test with P388 [2] was determined as 57%.
In turn, `C/C1=C\[C@@H](O)C(O)/C=C/C=C\c2csc(n2)[C@@H](C)NC(=O)C[C@@]2(CC1)[S+]([O-])SC(=O)[C@]2(C)O` (stereo in doubt; 7-2) came in with a half-maximal inhibitory concentration (IC50) in the test with HeLa (Homo sapiens, HeLa) of 4900 nM.
For `C/C1=C\[C@@H](O)C(O)/C=C/C=C\c2csc(n2)[C@@H](C)NC(=O)C[C@@]2(CC1)[S+]([O-])SC(=O)[C@]2(C)O` (stereo in doubt; 7-1), the IC50 with HeLa (hela) is 6200 nM.
In the test on HeLa (Homo sapiens, HeLa), `COC1(OC)/C=C/C=C\c2csc(n2)[C@@H](C)NC(=O)C[C@@]2(CC/C(C)=C/[C@H]1O)[S+]([O-])SC(=O)[C@]2(C)O` (stereo partly drawn) came in with an IC50 of more than 10000 nM.
`C/C1=C\[C@@H](OC2CCCCO2)C(=O)/C=C/C=C\c2csc(n2)[C@@H](C)NC(=O)C[C@@]2(CC1)[S+]([O-])SC(=O)[C@]2(C)O` (stereo partly drawn) displayed an IC50 in the test on HeLa (Homo sapiens, HeLa) of 1.3 nM. The molecule also gave an Optimal dose in the test with P388 [1] of 0.13 mg/kg. Also, the ILSmax in the test with P388 [2] came to 28%.
In turn, `C/C1=C\[C@@H](O)C(=N/OCc2ccccc2)/C=C/C=C\c2csc(n2)[C@@H](C)NC(=O)C[C@@]2(CC1)[S+]([O-])SC(=O)[C@]2(C)O` (stereo in doubt; 9c-1) displayed a half-maximal inhibitory concentration (IC50) in the test with HeLa (hela) of 110 nM. In addition, in the test on P388 [1], the Optimal dose worked out at 8 mg/kg. In the test on P388 [2], this molecule had an ILSmax of 29%.
In turn, `C/C1=C\[C@@H](OC(=O)Oc2ccc([N+](=O)[O-])cc2)C(=O)/C=C/C=C\c2csc(n2)[C@@H](C)NC(=O)C[C@@]2(CC1)[S+]([O-])SC(=O)[C@]2(C)O` (stereo partly drawn) showed an IC50 in the test on HeLa (Homo sapiens, HeLa) of 22 nM. For the same molecule, the Optimal dose with P388 [1] came to 2 mg/kg. Moreover, the ILSmax with P388 [2] worked out at 57%.
The matching figures for `CCCCCCCCCCCCCCCC(=O)O[C@@H]1/C=C(\C)CC[C@]2(CC(=O)N[C@H](C)c3nc(cs3)/C=C\C=C\C1=O)[S+]([O-])SC(=O)[C@]2(C)O` (stereo partly drawn): 7700 nM, 16 mg/kg and 37%.
The molecule `C/C1=C\[C@@H](OC(=O)c2cnc3ccccc3n2)C(=O)/C=C/C=C\c2csc(n2)[C@@H](C)NC(=O)C[C@@]2(CC1)[S+]([O-])SC(=O)[C@]2(C)O` (stereo partly drawn) returned a half-maximal inhibitory concentration (IC50) in the test on HeLa (Homo sapiens, HeLa) of 6.8 nM. Besides, the Optimal dose in the test with P388 [1] was determined as 2 mg/kg. In the test on P388 [2], this molecule had an ILSmax of 44%.
`C/C1=C\[C@@H](O)C(=N/OCc2ccccc2)/C=C/C=C\c2csc(n2)[C@@H](C)NC(=O)C[C@@]2(CC1)[S+]([O-])SC(=O)[C@]2(C)O` (stereo in doubt; 9c-2): in the test with HeLa (hela), inhibition was half-maximal at 9.5 nM (IC50). The molecule also came in with an Optimal dose in the test with P388 [1] of 2 mg/kg. In addition, the ILSmax in the test with P388 [2] was found to be 31%.
In the test with HeLa (Homo sapiens, HeLa), `CC(=O)O[C@@H]1/C=C(\C)CC[C@]2(CC(=O)N[C@H](C)c3nc(cs3)/C=C\C=C\C1=O)[S+]([O-])SC(=O)[C@]2(C)O` (stereo partly drawn) gave a half-maximal inhibitory concentration (IC50) of 10 nM. In the test on P388 [1], this molecule had an Optimal dose of 1 mg/kg. Moreover, in the test on P388 [2], the ILSmax was determined as 34%.
In turn, `C/C1=C\[C@@H](O)C(=N/O)/C=C/C=C\c2csc(n2)[C@@H](C)NC(=O)C[C@@]2(CC1)[S+]([O-])SC(=O)[C@]2(C)O` (stereo partly drawn) gave an IC50 in the test on HeLa (Homo sapiens, HeLa) of 910 nM.
In the case of `COC1(O[C@@H]2/C=C(\C)CC[C@]3(CC(=O)N[C@H](C)c4nc(cs4)/C=C\C=C\C2=O)[S+]([O-])SC(=O)[C@]3(C)O)CCOCC1` (stereo partly drawn), 18 nM corresponded to half-maximal inhibition in the test with HeLa (Homo sapiens, HeLa) (IC50). The Optimal dose in the test with P388 [1] is 2 mg/kg. In the test on P388 [2], the ILSmax came to 35%.
The matching figures for `CO\N=C1/C=C/C=C\c2csc(n2)[C@@H](C)NC(=O)C[C@@]2(CC/C(C)=C/[C@H]1O)[S+]([O-])SC(=O)[C@]2(C)O` (stereo in doubt; 9b-2): 110 nM, 2 mg/kg and 21%.
For `C/C1=C\[C@@H](OC(=O)C2CCCCC2)C(=O)/C=C/C=C\c2csc(n2)[C@@H](C)NC(=O)C[C@@]2(CC1)[S+]([O-])SC(=O)[C@]2(C)O` (stereo partly drawn), in that order: 58 nM, 4 mg/kg and 49%.
For `CC(=O)O[C@@H]1/C=C(\C)CC[C@]2(CC(=O)N[C@H](C)c3nc(cs3)/C=C\C=C\C1=O)[S+]([O-])SC(=O)[C@]2(C)OC(C)=O` (stereo partly drawn), in the test on HeLa (Homo sapiens, HeLa), the half-maximal inhibitory concentration (IC50) came out at 780 nM. The Optimal dose in the test with P388 [1] amounted to 2 mg/kg. The same molecule came in with an ILSmax in the test on P388 [2] of 15%.

A word on the IC50: it is the concentration that inhibits the measured activity by half. Read a low IC50 as higher potency.

The values above are taken from ChEMBL document CHEMBL1130788, “Synthesis and antitumor activity of leinamycin derivatives: modifications of C-8 hydroxy and C-9 keto groups” (Bioorg Med Chem Lett, 1998).
